Where a name gives a salt, the structure may show the parent alone.
Columns and labels:
[1] = Dynamic vapor sorption (DVS) analysis; type: physicochemical; conditions: for stability to humidity: over a wide range of humidity
Description: Approximately, 10-20 mg of sample was placed into a mesh vapor sorption balance pan and loaded into a DVS Intrinsic dynamic vapor sorption balance by Surface Measurement Systems. The sample was subjected to a ramping profile from 40-90% relative humidity (RH) at 10% increments, maintaining the sample at each step until a stable weight had been achieved (dm/dt 0.004%, minimum step length 30 minutes, maximum step length 500 minutes) at 25° C. After completion of the sorption cycle, the sample was dried using the same procedure to 0% RH and then a second sorption cycle back to 40% RH. Two cycles were performed. The weight change during the sorption/desorption cycles were plotted, allowing for the hygroscopic nature of the sample to be determined. XRPD analysis was then carried out on any solid retained.

[2] = Intrinsic dissolution studies (disc, Wood's die); type: physicochemical
Description: Discs for the intrinsic dissolution evaluation were prepared by weighing approximately 175 mg of each batch and compressing with a small hydraulic press in a 13 mm Wood's die for 3 minutes at a force of approximately 3000 lbs. The surface of each disc was examined carefully to ensure that it was uniform, smooth and free from loose powder.
The dissolution experiments were conducted by attaching the Wood's die containing the disc, to the matching shafts on an Erweka DT6 dissolution apparatus. The discs were lowered into the media (500 mL at 37° C.) and immediately rotated at 100 rpm. Duplicate samples of the media (0.2 mL) were removed prior to immersion of the disc and then at 2, 5, 10, 15, 20, 25, 30, 60 and 90 minutes after the experiment was initiated. Sampling was discontinued if substantial dissolution was visible or if the disc disintegrated in the media.
At the end of each experiment, the discs were removed from the media and examined to ensure that the surface of the discs remained uniform and to qualitatively assess the extent of dissolution over the course of the experiment. Media samples were centrifuged (10000 rpm×3 min) and a small aliquot (50 μL) removed, 5-fold diluted with 50% aqueous acetonitrile prior to HPLC analysis.

SMILES | water uptake corresponding to the mass increase ([1]; at 90% RH) | mass increase by dynamic vapor sorption ([1]; at 90% Relative Humidity (RH)) [wt. %] | stability to humidity [1] | dissolution profile compared to the free acid of the compound of Formula (I) ([2]; FaSSIF media, 37° C. (FIG. 12)) | dissolution profile compared to the free acid of the compound of Formula (I) ([2]; PBS media, 37° C. (FIG. 13)) | hygroscopicity by dynamic vapor sorption/desorption analysis [1] | water uptake by dynamic vapor sorption ([1]; at 90% RH)
COc1cc(/C=C/C(=O)Nc2ccccc2C(=O)O)ccc1OC(F)F [Crystalline Salt A] | 1.3 equiv. of water | 4.2 | stable over a wide range of humidity | superior | superior |  | 
COc1cc(/C=C/C(=O)Nc2ccccc2C(=O)O)ccc1OC(F)F [Crystalline Salt B] |  |  | stable over a wide range of humidity | superior | equivalent, if not better | non-hygroscopic | negligible water uptake

Reference: US20240174598A1, “COMPOUNDS FOR THE TREATMENT OF DISORDERS AND SALTS AND POLYMORPHS THEREOF” (OccuRx Pty Ltd, priority 2021, published 2024)
